Measured values published in article PMC8381290 (Journal of medicinal chemistry, 2021).

Assays:
RPE65 [1] = target: T1, RPE65 (Bos taurus, UniProt Q28175); details: RPE65 inhibition; cited from earlier work
[2] = 3 h after single 380 nmol i.p. dose
[3] = type: in vivo, mouse; details: for distribution within ocular tissue / accumulation in the eye compared with emixustat: single 380 nmol i.p. dose
RPE65 [4] = target: T1, RPE65; assay: RPE65 retinoid isomerase activity assay; details: ratio of IC50 values

T1 sequence (Q28175 whole entry): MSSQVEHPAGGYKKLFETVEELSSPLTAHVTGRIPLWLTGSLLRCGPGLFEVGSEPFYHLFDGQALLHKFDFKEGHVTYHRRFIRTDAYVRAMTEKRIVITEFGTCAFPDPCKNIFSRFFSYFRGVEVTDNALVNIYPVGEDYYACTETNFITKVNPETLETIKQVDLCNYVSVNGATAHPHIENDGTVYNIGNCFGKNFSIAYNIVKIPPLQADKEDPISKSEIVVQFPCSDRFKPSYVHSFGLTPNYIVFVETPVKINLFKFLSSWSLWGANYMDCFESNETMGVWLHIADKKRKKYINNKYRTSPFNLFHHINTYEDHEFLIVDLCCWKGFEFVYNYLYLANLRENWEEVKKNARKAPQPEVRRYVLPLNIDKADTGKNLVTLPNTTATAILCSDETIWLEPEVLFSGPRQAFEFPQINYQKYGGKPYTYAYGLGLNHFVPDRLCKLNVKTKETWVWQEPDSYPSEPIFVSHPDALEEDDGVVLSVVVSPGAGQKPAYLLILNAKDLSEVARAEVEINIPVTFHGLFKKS

| initial plasma (serum) level [2] | accumulation in the eye compared with emixustat [3] | Structure (SMILES) | distribution within ocular tissue [3] | other results |
| --- | --- | --- | --- | --- |
| – | – | CCCC(CCC)COc1cccc([C@H](O)CCN)c1 [(R)-MB-004] | – | IC50 (RPE65 [1]): 106 ± 16 nM |
| highest initial plasma levels | – | CCCC(CCC)COc1cc([C@H](O)CCN)ccc1F [Compound 24, (R)-3-Amino-1-(4-fluoro-3-((2-propylpentyl)oxy)phenyl)propan-1-ol] | poorest distribution within ocular tissue | inhibitory potency relative to racemic emixustat (RPE65 [4]): 3 times |
| highest initial plasma levels | – | NCCC(O)c1ccc(F)c(OCC2CCCCC2)c1 (stereo not shown) [Compound 49, 3-Amino-1-(3-(cyclohexylmethoxy)-4-fluorophenyl)propan-1-ol] | poorest distribution within ocular tissue | – |
| – | accumulate more | NCCC(O)c1cccc(OCC2CCC(F)(F)CC2)c1 (stereo not shown) [Compound 57, 3-Amino-1-(3-((4,4-difluorocyclohexyl)methoxy)phenyl) propan-1-ol] | – | eye amount relative to compounds 24 and 49 ([3]; day 7 after single i.p. dose): 10 times; eye amount relative to emixustat ([3]; day 7 after single i.p. dose): 5 times |
| – | accumulate more | [2H]C([2H])(N)CC(O)c1cccc(OCC2CCC(F)(F)CC2)c1 (stereo not shown) [Compound 59, 3-Amino-1-(3-((4,4-difluorocyclohexyl)methoxy)phenyl)propan-3,3-d2-1-ol] | – | – |
